The values below come from patent US7026339B2, “Inhibitors of HCV NS5B polymerase” (priority 2003, dated 2006).

Each structure is given as a SMILES string. Where only a bound is given, the exact number is not on record here.

In this assay the test system is HuH-7 replicon cells 5–15 and 9–13 (HCV replication). In words: Inhibition of viral replication in HuH-7 replicon cells (HCV RNA / GAPDH RNA by multiplex RT-PCR). Format: cell-based. Particulars: Hepatitis C virus, 72 h; inhibiting 50% of replication; HuH-7 replicon cells, 3 days; read-out: IC50. The essentials: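 HCV and GAPDH RNA were measured by multiplex TaqMan RT-PCR (HCV 5′ untranslated region) after 3-day compound treatment at 37 °C, final 100 μM–1 μM in 1% DMSO. Cells were plated 24 h beforehand at 7×10^3/well. Read-out: HCV-to-GAPDH ratio expressed as percent control versus untreated cells.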
Take `COc1ccc(OC)c(CC(=O)N/N=C/c2ccccc2OS(=O)(=O)c2ccc(C(F)(F)F)cc2)c1` [Compound 37, 2-((E)-{2-[2-(2,5-dimethoxyphenyl)acetyl]hydrazono}methyl)-phenyl 4-(trifluoromethyl)benzenesulfonate]: the IC50 is less than 5 µM.

Regarding `COc1cccc(CC(=O)N/N=C/c2ccccc2OS(=O)(=O)c2ccc(C(C)=O)cc2)c1` [Compound 195, 2-((E)-{2-[2-(3-methoxyphenyl)acetyl]hydrazono}methyl)-phenyl 4-acetylbenzenesulfonate], the IC50 is less than 5 µM.

With `O=C(Cc1ccccc1)N/N=C/c1ccccc1OS(=O)(=O)c1ccccc1Br` [Compound 140, 2-{(E)-[2-(2-phenylacetyl)hydrazono]methyl}phenyl 2-bromobenzenesulfonate], the IC50 was greater than 50 µM.

Turning to `O=C(Cc1ccc2ccccc2c1)N/N=C/c1ccccc1OS(=O)(=O)c1ccc(C(F)(F)F)cc1` [Compound 68, 2-((E)-{2-[2-(2-naphthyl)acetyl]hydrazono}methyl)phenyl4-(trifluoromethyl)benzenesulfonate], the IC50 was less than 5 µM.

As for `COc1cccc(CC(=O)N/N=C/c2c(C)cccc2OS(=O)(=O)c2ccc(C)cc2)c1` [Compound 204, 2-((E)-{[(3-methoxyphenyl)acetyl]hydrazono}methyl)-3-methylphenyl 4-methylbenzenesulfonate], the IC50 was less than 5 µM.

On to `O=C(CC1CCCC1)N/N=C/c1ccccc1OS(=O)(=O)c1ccc(C(F)(F)F)cc1` [Compound 84, 2-{(E)-[2-(2-cyclopentylacetyl)hydrazono]methyl}phenyl4-(trifluoromethyl)benzenesulfonate], for which the IC50 was less than 5 µM.

Take `COc1cccc(CNc2cccc(CC(=O)N/N=C/c3ccccc3OS(=O)(=O)c3ccc(C(F)(F)F)cc3)c2)c1` [Compound 96, 2-{(E)-[2-(2-{3-[(3-methoxybenzyl)amino]phenyl}acetyl)hydrazono]methyl}phenyl 4-(trifluoromethyl)benzenesulfonate]: the IC50 is greater than 50 µM.

Take `Cc1ccc(Oc2ccccc2/C=N/NC(=O)Cc2ccccc2)cc1` [Compound 234, N′-{(1E)-[2-(4-methylphenoxy)phenyl]methylene}-2-phenylacetohydrazide]: the IC50 was greater than 50 µM.

For the compound `COc1ccccc1CC(=O)N/N=C/c1ccccc1OS(=O)(=O)c1ccc(C(F)(F)F)cc1` [Compound 36, 2-((E)-{2-[2-(2-methoxyphenyl)acetyl]hydrazono}methyl)-phenyl 4-(trifluoromethyl)benzenesulfonate], the IC50 fell in the range of 5 to 50 µM.

With `CN(c1ccccc1/C=N/NC(=O)Cc1cccnc1)S(=O)(=O)c1ccc(C(F)(F)F)cc1` [Compound 247, N-methyl-N-(2-{(E)-[(pyridin-3-ylacetyl)hydrazono]methyl}phenyl)-4-(trifluoromethyl)benzenesulfonamide], the half-maximal inhibitory concentration (IC50) was less than 5 µM.

Take `O=C(Cn1c(Br)nc(Cl)c1Cl)N/N=C/c1ccccc1OS(=O)(=O)c1ccc(C(F)(F)F)cc1` [Compound 107, 2-((E)-{2-[2-(2-bromo-4,5-dichloro-1H-imidazol-1-yl)acetyl]hydrazono}methyl)phenyl 4-(trifluoromethyl)benzenesulfonate]: the IC50 is greater than 50 µM.

For the compound `COc1ccc(OC)c(S(=O)(=O)Oc2ccccc2/C=N/NC(=O)Cc2ccccc2)c1` [Compound 138, 2-{(E)-[2-(2-phenylacetyl)hydrazono]methyl}phenyl2,5-dimethoxybenzenesulfonate], the IC50 is greater than 50 µM.

For `COc1cccc(CC(=O)N/N=C(\C)c2ccccc2OS(=O)(=O)c2ccc(C(F)(F)F)cc2)c1` [Compound 221, 2-{(1E)-N-[(3-methoxyphenyl)acetyl]ethanehydrazonoyl}-phenyl 4-(trifluoromethyl)benzenesulfonate], the IC50 was greater than 50 µM.

Consider `Cc1ccccc1C(=O)N/N=C/c1ccccc1OS(=O)(=O)c1ccc(C(F)(F)F)cc1` [Compound 100, 2-{(E)-[2-(2-methylbenzoyl)hydrazono]methyl}phenyl4-(trifluoromethyl)benzenesulfonate], for which the IC50 was less than 5 µM.

Regarding `O=C(Cc1cccc(Cl)c1)N/N=C/c1c(F)cccc1OS(=O)(=O)c1ccc(C(F)(F)F)cc1` [Compound 206, 2-((E)-{[(3-chlorophenyl)acetyl]hydrazono}methyl)-3-fluorophenyl 4-(trifluoromethyl)benzenesulfonate], the IC50 was less than 5 µM.

Take `CSc1ncccc1C(=O)N/N=C/c1ccccc1OS(=O)(=O)c1ccc(C(F)(F)F)cc1` [Compound 83, 2-[(E)-(2-{[2-(methylthio)pyridin-3-yl]carbonyl}hydrazono)methyl]phenyl 4-(trifluoromethyl)benzenesulfonate]: the IC50 was less than 5 µM.

Consider `CCCc1ccc(S(=O)(=O)Oc2ccccc2/C=N/NC(=O)Cc2ccccc2)cc1` [Compound 134, 2-{(E)-[2-(2-phenylacetyl)hydrazono]methyl}phenyl 4-propylbenzenesulfonate], for which the IC50 was less than 5 µM.

On to `CN(c1ccccc1/C=N/NC(=O)c1cc(Cl)ccc1Cl)S(=O)(=O)c1ccc(C(F)(F)F)cc1` [Compound 240, N-(2-{(E)-[(2,5-dichlorobenzoyl)hydrazono]methyl}phenyl)-N-methyl-4-(trifluoromethyl)benzenesulfonamide], for which the IC50 came out at 1 µM.

With `O=C(Cc1ccccc1)N/N=C/c1ccccc1OS(=O)(=O)c1ccccc1OC(F)(F)F` [Compound 141, 2-{(E)-[2-(2-phenylacetyl)hydrazono]methyl}phenyl 2-(trifluoromethoxy)benzenesulfonate], the IC50 was greater than 50 µM.

Turning to `Cc1cccc(/C=N/NC(=O)Cc2cccc(Cl)c2)c1OS(=O)(=O)c1ccc(C(F)(F)F)cc1` [Compound 173, 2-((E)-{[(3-chlorophenyl)acetyl]hydrazono}methyl)-6-methylphenyl 4-(trifluoromethyl)benzenesulfonate], the IC50 was less than 5 µM.

On to `O=C(Cc1ccccc1Oc1ccccc1)N/N=C/c1ccccc1OS(=O)(=O)c1ccc(C(F)(F)F)cc1` [Compound 57, 2-((E)-{2-[2-(2-phenoxyphenyl)acetyl]hydrazono}methyl)-phenyl 4-(trifluoromethyl)benzenesulfonate], for which the IC50 was less than 5 µM.

As to `Cc1cccnc1C(=O)N/N=C/c1ccccc1OS(=O)(=O)c1ccc(C(F)(F)F)cc1` [Compound 93, 2-((E)-{2-[(3-methylpyridin-2-yl)carbonyl]hydrazono}methyl)phenyl 4-(trifluoromethyl)benzenesulfonate], the IC50 is greater than 50 µM.

Consider `COc1cccc(CC(=O)N/N=C/c2ccccc2OS(=O)(=O)Cc2cccc(C(F)(F)F)c2)c1` [Compound 189, 2-((E)-{2-[2-(3-methoxyphenyl)acetyl]hydrazono}methyl)-phenyl [3-(trifluoromethyl)phenyl]methanesulfonate], for which the 50% inhibitory concentration (IC50) was greater than 50 µM.

`O=C(CC12CC3CC(CC(C3)C1)C2)N/N=C/c1ccccc1OS(=O)(=O)c1ccc(C(F)(F)F)cc1` [Compound 94, 2-((E)-{2-[2-(1-adamantyl)acetyl]hydrazono}methyl)phenyl4-(trifluoromethyl)benzenesulfonate]: the IC50 is greater than 50 µM.

With `COc1cccc(CC(=O)N/N=C/c2ccccc2OS(=O)(=O)c2ccc(Oc3ncc(C(F)(F)F)cc3Cl)cc2)c1` [Compound 218, 2-((E)-{2-[2-(3-methoxyphenyl)acetyl]hydrazono}methyl)-phenyl 4-{[3-chloro-5-(trifluoromethyl)pyridin-2-yl]oxy}benzenesulfonate], the IC50 is greater than 50 µM.

Regarding `O=C(Cc1ccccc1)N/N=C/c1ccccc1OS(=O)(=O)c1cccc(Br)c1` [Compound 127, 2-{(E)-[2-(2-phenylacetyl)hydrazono]methyl}phenyl 3-bromobenzenesulfonate], the IC50 is 5 to 50 µM.

Regarding `O=C(Cc1cccc(F)c1)N/N=C/c1ccccc1OS(=O)(=O)c1ccc(C(F)(F)F)cc1` [Compound 48, 2-((E)-{2-[2-(3-fluorophenyl)acetyl]hydrazono}methyl)-phenyl 4-(trifluoromethyl)benzenesulfonate], the concentration for half-maximal inhibition (IC50) is less than 5 µM.

In the case of `O=C(Cc1ccccc1)N/N=C/c1ccccc1OS(=O)(=O)c1cc(Cl)ccc1Cl` [Compound 139, 2-{(E)-[2-(2-phenylacetyl)hydrazono]methyl}phenyl2,5-dichlorobenzenesulfonate], the IC50 is greater than 50 µM.

`COc1cccc(CC(=O)N/N=C/c2ccccc2OS(=O)(=O)c2ccc(C)cc2)c1` [Compound 145, 2-((E)-{2-[2-(3-methoxyphenyl)acetyl]hydrazono}methyl)-phenyl 4-methylbenzenesulfonate]: the IC50 is less than 5 µM.

Regarding `COc1cccc(CC(=O)N/N=C/c2ncccc2OS(=O)(=O)c2ccc(C)cc2)c1` [Compound 185, 2-((E)-{2-[2-(3-methoxyphenyl)acetyl]hydrazono}methyl)-pyridin-3-yl 4-methylbenzenesulfonate], the concentration for half-maximal inhibition (IC50) was less than 5 µM.

Consider `CS(=O)(=O)c1ccc(CC(=O)N/N=C/c2ccccc2OS(=O)(=O)c2ccc(C(F)(F)F)cc2)cc1` [Compound 69, 2-[(E)-(2-{2-[4-(methylsulfonyl)phenyl]acetyl}hydrazono)-methyl]phenyl 4-(trifluoromethyl)benzenesulfonate], for which the IC50 is greater than 50 µM.

`O=C(Cc1c(F)c(F)c(F)c(F)c1F)N/N=C/c1ccccc1OS(=O)(=O)c1ccc(C(F)(F)F)cc1` [Compound 12, 2-((E)-{2-[2-(pentafluorophenyl)acetyl]hydrazono}-methyl)phenyl 4-(trifluoromethyl)benzenesulfonate]: the IC50 was greater than 50 µM.

As for `COc1cccc(CC(=O)N/N=C/c2ccncc2OS(=O)(=O)c2ccc(C)cc2)c1` [Compound 229, 4-((E)-{2-[2-(3-methoxyphenyl)acetyl]hydrazono}methyl)-pyridin-3-yl 4-methylbenzenesulfonate], the IC50 was less than 5 µM.

As for `CN(c1ccccc1/C=N/NC(=O)Cc1cccc(Br)c1)S(=O)(=O)c1ccc(C(F)(F)F)cc1` [Compound 245, N-[2-((E)-{[(3-bromophenyl)acetyl]hydrazono}methyl)-phenyl]-N-methyl-4-(trifluoromethyl)benzenesulfonamide], the IC50 is less than 5 µM.

By IC50 is commonly meant the concentration at which inhibition is half-maximal.
